Results published in ChEMBL document CHEMBL4507266, “Data for DCP probe BAY-784” (2021).

How the values were obtained:
[1] = target: Mitogen-activated protein kinase 11 (Homo sapiens) (UniProt Q15759); details: Compound concentration 1000.0 nM
[2] = test system: Receptor-type tyrosine-protein kinase FLT3 (Homo sapiens), P36888 [UNDEFINED MUTATION]; details: Compound concentration 1000.0 nM
[3] = target: Tyrosine-protein kinase Yes (Homo sapiens) (UniProt P07947); details: Compound concentration 1000.0 nM
[4] = target: Phosphatidylinositol 3-kinase catalytic subunit type 3 (Homo sapiens) (UniProt Q8NEB9); details: Compound concentration 1000.0 nM
[5] = test system: Hepatocyte growth factor receptor (Homo sapiens), P08581 [Y1235D]; details: Compound concentration 1000.0 nM
[6] = target: Serine/threonine-protein kinase 33 (Homo sapiens) (UniProt Q9BYT3); details: Compound concentration 1000.0 nM
[7] = target: Citron Rho-interacting kinase (Homo sapiens) (UniProt O14578); details: Compound concentration 1000.0 nM
[8] = target: Platelet-derived growth factor receptor beta (Homo sapiens) (UniProt P09619); details: Compound concentration 1000.0 nM
[9] = target: Mitogen-activated protein kinase 7 (Homo sapiens) (UniProt Q13164); details: Compound concentration 1000.0 nM
[10] = target: Ephrin type-A receptor 4 (Homo sapiens) (UniProt P54764); details: Compound concentration 1000.0 nM
[11] = target: Serine/threonine-protein kinase 25 (Homo sapiens) (UniProt O00506); details: Compound concentration 1000.0 nM
[12] = target: Cyclin-dependent kinase 14 (Homo sapiens) (UniProt O94921); details: Compound concentration 1000.0 nM
[13] = target: Protein kinase C delta type (Homo sapiens) (UniProt Q05655); details: Compound concentration 1000.0 nM
[14] = target: Myosin-IIIa (Homo sapiens) (UniProt Q8NEV4); details: Compound concentration 1000.0 nM
[15] = target: Interleukin-1 receptor-associated kinase 1 (Homo sapiens) (UniProt P51617); details: Compound concentration 1000.0 nM
[16] = target: Casein kinase I isoform alpha (Homo sapiens) (UniProt P48729); details: Compound concentration 1000.0 nM
[17] = target: Serine/threonine-protein kinase RIO3 (Homo sapiens) (UniProt O14730); details: Compound concentration 1000.0 nM
[18] = target: Sigma non-opioid intracellular receptor 1 (Homo sapiens) (UniProt Q99720); details: Compound concentration 10.0 uM
[19] = target: Tyrosine-protein kinase Fyn (Homo sapiens) (UniProt P06241); details: Compound concentration 1000.0 nM
[20] = target: Serine/threonine-protein kinase WNK3 (Homo sapiens) (UniProt Q9BYP7); details: Compound concentration 1000.0 nM
[21] = test system: Receptor-type tyrosine-protein kinase FLT3 (Homo sapiens), P36888 [UNDEFINED MUTATION]; details: Compound concentration 1000.0 nM; remark: listed apart in the source
[22] = test system: Mast/stem cell growth factor receptor Kit (Homo sapiens), P10721 [L576P]; details: Compound concentration 1000.0 nM
[23] = test system: Mast/stem cell growth factor receptor Kit (Homo sapiens), P10721 [V559D,V654A]; details: Compound concentration 1000.0 nM
[24] = target: Serine/threonine-protein kinase Sgk1 (Homo sapiens) (UniProt O00141); details: Compound concentration 1000.0 nM
[25] = target: Rhodopsin kinase GRK1 (Homo sapiens) (UniProt Q15835); details: Compound concentration 1000.0 nM
[26] = target: 5'-AMP-activated protein kinase catalytic subunit alpha-1 (Homo sapiens) (UniProt Q13131); details: Compound concentration 1000.0 nM
[27] = target: Mitogen-activated protein kinase kinase kinase 5 (Homo sapiens) (UniProt Q99683); details: Compound concentration 1000.0 nM
[28] = target: Serine/threonine-protein kinase tousled-like 1 (Homo sapiens) (UniProt Q9UKI8); details: Compound concentration 1000.0 nM
[29] = target: Atypical kinase COQ8A, mitochondrial (Homo sapiens) (UniProt Q8NI60); details: Compound concentration 1000.0 nM
[30] = target: Beta-3 adrenergic receptor (Homo sapiens) (UniProt P13945); details: Compound concentration 10.0 uM
[31] = target: Serine/threonine-protein kinase TNNI3K (Homo sapiens) (UniProt Q59H18); details: Compound concentration 1000.0 nM
[32] = target: Death-associated protein kinase 2 (Homo sapiens) (UniProt Q9UIK4); details: Compound concentration 1000.0 nM
[33] = target: Glycogen synthase kinase-3 alpha (Homo sapiens) (UniProt P49840); details: Compound concentration 1000.0 nM
[34] = target: 5-hydroxytryptamine receptor 1B (Homo sapiens) (UniProt P28222); details: Compound concentration 10.0 uM
[35] = target: Serine/threonine-protein kinase haspin (Homo sapiens) (UniProt Q8TF76); details: Compound concentration 1000.0 nM
[36] = target: Insulin-like growth factor 1 receptor (Homo sapiens) (UniProt P08069); details: Compound concentration 1000.0 nM
[37] = target: Dual specificity mitogen-activated protein kinase kinase 2 (Homo sapiens) (UniProt P36507); details: Compound concentration 1000.0 nM
[38] = target: Serine/threonine-protein kinase 35 (Homo sapiens) (UniProt Q8TDR2); details: Compound concentration 1000.0 nM
[39] = target: 5'-AMP-activated protein kinase catalytic subunit alpha-2 (Homo sapiens) (UniProt P54646); details: Compound concentration 1000.0 nM
[40] = target: Mitogen-activated protein kinase kinase kinase 6 (Homo sapiens) (UniProt O95382); details: Compound concentration 1000.0 nM
[41] = target: Mast/stem cell growth factor receptor Kit (Homo sapiens) (UniProt P10721); details: Compound concentration 1000.0 nM
[42] = target: Vascular endothelial growth factor receptor 2 (Homo sapiens) (UniProt P35968); details: Compound concentration 1000.0 nM
[43] = target: Activin receptor type-2B (Homo sapiens) (UniProt Q13705); details: Compound concentration 1000.0 nM
[44] = target: Mitogen-activated protein kinase kinase kinase 1 (Homo sapiens) (UniProt Q13233); details: Compound concentration 1000.0 nM
[45] = target: Serine/threonine-protein kinase RIO2 (Homo sapiens) (UniProt Q9BVS4); details: Compound concentration 1000.0 nM
Serine/threonine-protein kinase RIO2 (Homo sapiens), sequence (Q9BVS4 whole entry, looked up): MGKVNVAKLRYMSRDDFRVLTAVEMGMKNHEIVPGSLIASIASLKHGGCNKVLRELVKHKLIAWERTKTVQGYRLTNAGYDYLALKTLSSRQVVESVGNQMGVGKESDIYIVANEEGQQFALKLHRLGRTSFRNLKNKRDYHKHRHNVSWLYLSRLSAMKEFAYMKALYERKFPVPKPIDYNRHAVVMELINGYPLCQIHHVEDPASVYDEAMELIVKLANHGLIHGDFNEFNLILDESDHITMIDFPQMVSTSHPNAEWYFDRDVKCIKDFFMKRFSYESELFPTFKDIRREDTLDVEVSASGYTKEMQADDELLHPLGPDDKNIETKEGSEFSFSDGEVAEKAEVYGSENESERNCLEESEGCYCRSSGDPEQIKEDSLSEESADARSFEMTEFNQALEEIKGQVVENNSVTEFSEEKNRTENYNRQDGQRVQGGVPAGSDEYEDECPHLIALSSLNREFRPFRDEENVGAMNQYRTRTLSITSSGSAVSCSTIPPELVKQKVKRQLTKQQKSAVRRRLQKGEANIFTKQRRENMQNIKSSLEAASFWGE

Receptor-type tyrosine-protein kinase FLT3 (Homo sapiens), P36888 [UNDEFINED MUTATION], sequence (P36888 whole entry, looked up, stated change not applied): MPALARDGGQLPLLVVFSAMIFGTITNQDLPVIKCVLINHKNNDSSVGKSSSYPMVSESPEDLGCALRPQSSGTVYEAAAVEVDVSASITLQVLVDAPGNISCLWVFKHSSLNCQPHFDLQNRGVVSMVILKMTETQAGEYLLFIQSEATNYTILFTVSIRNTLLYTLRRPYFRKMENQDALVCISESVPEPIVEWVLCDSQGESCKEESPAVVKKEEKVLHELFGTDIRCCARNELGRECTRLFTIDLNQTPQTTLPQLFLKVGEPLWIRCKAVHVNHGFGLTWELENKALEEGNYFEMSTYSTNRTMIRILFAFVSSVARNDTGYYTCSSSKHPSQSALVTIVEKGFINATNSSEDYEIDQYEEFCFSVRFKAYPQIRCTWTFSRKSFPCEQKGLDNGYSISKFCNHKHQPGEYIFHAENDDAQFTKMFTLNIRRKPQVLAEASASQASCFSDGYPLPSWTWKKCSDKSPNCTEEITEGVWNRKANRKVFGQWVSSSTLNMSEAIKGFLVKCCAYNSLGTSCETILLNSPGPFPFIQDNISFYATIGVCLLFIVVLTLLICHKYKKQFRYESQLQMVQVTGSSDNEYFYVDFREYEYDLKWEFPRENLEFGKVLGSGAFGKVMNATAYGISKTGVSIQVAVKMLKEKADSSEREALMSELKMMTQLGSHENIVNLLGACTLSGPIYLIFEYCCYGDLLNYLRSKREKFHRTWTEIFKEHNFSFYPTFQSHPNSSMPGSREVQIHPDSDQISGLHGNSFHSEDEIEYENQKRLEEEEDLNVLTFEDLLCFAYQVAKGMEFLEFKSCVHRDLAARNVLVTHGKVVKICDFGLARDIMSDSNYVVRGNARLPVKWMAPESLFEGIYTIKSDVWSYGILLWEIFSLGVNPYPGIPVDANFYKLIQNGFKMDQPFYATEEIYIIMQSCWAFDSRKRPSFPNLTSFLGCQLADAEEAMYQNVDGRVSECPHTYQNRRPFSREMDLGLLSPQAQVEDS
Mitogen-activated protein kinase 7 (Homo sapiens), sequence (Q13164 2-816 limits assumed): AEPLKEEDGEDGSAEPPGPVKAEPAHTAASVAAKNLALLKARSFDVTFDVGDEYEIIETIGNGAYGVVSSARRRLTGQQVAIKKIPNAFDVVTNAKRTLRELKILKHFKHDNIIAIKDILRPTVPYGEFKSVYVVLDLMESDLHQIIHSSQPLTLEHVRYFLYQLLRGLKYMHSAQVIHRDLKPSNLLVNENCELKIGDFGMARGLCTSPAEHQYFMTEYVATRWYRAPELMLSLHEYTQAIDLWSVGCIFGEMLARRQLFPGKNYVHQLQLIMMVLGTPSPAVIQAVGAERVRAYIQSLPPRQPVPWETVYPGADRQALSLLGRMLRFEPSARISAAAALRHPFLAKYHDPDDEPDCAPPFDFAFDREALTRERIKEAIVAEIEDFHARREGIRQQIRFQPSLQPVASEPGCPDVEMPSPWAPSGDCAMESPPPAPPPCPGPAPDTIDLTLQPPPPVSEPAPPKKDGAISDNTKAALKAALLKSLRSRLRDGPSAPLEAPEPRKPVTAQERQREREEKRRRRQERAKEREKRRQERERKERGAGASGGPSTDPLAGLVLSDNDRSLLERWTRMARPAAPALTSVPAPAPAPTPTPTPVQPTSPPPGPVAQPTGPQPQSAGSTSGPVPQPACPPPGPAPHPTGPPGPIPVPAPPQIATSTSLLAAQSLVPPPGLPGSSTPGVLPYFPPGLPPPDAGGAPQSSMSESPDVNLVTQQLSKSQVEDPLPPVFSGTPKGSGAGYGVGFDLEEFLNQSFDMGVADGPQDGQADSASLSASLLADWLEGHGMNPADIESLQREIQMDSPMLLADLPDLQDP
Tyrosine-protein kinase Fyn (Homo sapiens), sequence (P06241 2-537 limits assumed): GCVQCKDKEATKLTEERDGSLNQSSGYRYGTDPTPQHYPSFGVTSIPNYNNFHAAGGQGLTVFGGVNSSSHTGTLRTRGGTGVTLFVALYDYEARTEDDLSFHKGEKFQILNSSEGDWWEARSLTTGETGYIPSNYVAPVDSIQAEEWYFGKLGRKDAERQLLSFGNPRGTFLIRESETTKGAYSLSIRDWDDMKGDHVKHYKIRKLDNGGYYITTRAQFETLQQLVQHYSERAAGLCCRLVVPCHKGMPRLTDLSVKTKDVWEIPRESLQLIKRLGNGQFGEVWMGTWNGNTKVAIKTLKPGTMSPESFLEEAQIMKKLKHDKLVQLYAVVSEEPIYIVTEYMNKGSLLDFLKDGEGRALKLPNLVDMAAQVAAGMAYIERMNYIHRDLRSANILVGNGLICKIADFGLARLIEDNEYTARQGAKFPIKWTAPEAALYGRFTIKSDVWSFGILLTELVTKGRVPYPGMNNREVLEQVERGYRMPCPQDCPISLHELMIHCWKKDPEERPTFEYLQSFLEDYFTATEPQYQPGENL
Serine/threonine-protein kinase tousled-like 1 (Homo sapiens), sequence (Q9UKI8 whole entry): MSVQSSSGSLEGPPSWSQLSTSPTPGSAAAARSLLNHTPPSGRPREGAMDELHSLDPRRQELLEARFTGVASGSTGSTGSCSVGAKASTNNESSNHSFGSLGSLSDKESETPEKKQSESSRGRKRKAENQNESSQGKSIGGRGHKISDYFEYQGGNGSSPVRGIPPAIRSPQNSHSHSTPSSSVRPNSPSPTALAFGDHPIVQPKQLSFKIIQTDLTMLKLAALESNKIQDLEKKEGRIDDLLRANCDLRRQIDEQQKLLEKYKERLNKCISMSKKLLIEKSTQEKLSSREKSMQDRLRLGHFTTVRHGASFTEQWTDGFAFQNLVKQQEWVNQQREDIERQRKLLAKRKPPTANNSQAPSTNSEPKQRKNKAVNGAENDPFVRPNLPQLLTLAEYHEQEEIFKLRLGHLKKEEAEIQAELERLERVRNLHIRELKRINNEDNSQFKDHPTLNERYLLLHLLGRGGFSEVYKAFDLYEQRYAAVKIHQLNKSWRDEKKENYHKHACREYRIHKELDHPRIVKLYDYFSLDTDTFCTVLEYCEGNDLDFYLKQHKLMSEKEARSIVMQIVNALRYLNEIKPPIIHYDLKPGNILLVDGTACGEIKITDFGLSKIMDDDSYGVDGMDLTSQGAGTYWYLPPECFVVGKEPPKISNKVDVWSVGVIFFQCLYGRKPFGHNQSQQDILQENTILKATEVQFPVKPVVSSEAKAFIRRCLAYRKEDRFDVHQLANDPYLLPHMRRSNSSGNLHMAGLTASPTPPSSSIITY
Cyclin-dependent kinase 14 (Homo sapiens), sequence (O94921 whole entry): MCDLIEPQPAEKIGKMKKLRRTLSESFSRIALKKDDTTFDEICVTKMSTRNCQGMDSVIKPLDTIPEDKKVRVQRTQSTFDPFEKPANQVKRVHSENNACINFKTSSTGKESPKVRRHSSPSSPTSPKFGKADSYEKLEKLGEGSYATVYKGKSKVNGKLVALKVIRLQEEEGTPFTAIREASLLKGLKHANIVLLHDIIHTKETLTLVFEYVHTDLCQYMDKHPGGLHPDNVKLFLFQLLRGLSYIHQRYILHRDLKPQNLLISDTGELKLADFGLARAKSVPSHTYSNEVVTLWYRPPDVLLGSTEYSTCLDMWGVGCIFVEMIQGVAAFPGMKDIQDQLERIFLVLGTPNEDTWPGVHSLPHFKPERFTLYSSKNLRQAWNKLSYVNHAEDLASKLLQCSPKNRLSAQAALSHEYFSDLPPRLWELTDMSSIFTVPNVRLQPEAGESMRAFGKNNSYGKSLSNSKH
Glycogen synthase kinase-3 alpha (Homo sapiens), sequence (P49840 2-483 limits assumed): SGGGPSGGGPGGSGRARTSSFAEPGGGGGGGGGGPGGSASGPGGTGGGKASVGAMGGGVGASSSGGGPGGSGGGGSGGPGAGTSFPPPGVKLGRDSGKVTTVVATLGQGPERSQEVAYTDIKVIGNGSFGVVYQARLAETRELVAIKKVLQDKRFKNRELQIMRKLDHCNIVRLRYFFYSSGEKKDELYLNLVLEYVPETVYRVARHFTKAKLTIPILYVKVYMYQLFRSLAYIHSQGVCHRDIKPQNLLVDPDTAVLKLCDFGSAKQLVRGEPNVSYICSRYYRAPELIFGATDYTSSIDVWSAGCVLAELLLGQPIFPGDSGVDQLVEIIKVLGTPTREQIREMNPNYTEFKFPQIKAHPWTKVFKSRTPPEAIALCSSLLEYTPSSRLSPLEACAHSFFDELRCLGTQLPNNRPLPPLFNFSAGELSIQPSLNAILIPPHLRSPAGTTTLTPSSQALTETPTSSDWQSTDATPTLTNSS
Serine/threonine-protein kinase Sgk1 (Homo sapiens), sequence (O00141 whole entry): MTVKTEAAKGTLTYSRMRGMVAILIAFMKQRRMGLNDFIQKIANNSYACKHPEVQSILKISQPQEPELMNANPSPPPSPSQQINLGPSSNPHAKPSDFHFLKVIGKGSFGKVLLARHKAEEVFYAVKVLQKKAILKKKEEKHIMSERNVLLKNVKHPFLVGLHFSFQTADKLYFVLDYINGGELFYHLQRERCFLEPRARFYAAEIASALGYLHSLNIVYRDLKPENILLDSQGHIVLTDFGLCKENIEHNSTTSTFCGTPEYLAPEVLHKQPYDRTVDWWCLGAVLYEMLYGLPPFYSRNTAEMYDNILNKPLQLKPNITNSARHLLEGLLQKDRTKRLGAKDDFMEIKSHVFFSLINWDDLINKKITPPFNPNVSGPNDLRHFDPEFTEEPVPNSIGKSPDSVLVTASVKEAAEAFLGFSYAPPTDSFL

For O=C(NCc1ncc(C(F)(F)F)cc1Cl)c1ccc2c(c1)C1(CCS(=O)(=O)CC1)[C@H](C1CC1)N2S(=O)(=O)c1ccc(F)cc1 [BAY-784], the residual activity [1] was 100%, the residual activity [2] was 76% and the residual activity [3] was 90%. It also gave a residual activity [4] of 86%, a residual activity [5] of 100% and a residual activity [6] of 100%. It also gave a residual activity [7] of 100%, a residual activity [8] of 92% and a residual activity [9] of 99%. The residual activity [10] was 100%, the residual activity [11] was 100% and the residual activity [12] was 100%. For the same molecule, the residual activity [13] was 100%, the residual activity [14] was 100% and the residual activity [15] was 82%. For the same molecule, the residual activity [16] was 92%, the residual activity [17] was 69% and the inhibition [18] was 17.8%. The residual activity [19] was 100%, the residual activity [20] was 86% and the residual activity [21] was 100%. The residual activity [22] was 100%, the residual activity [23] was 100% and the residual activity [24] was 79%. It also gave a residual activity [25] of 80%, a residual activity [26] of 39% and a residual activity [27] of 100%. It also gave a residual activity [28] of 96%, a residual activity [29] of 96% and an inhibition [30] of -2.87%. It also gave a residual activity [31] of 100%, a residual activity [32] of 99% and a residual activity [33] of 100%. The inhibition [34] was -6.19%, the residual activity [35] was 87% and the residual activity [36] was 100%. The residual activity [37] was 88%, the residual activity [38] was 100% and the residual activity [39] was 100%. The residual activity [40] was 83%, the residual activity [41] was 76% and the residual activity [42] was 83%. It also gave a residual activity [43] of 90%, a residual activity [44] of 63% and a residual activity [45] of 77%.

O=C(NCc1ncc(C(F)(F)F)cc1Cl)c1ccc2c(c1)C1(CCS(=O)(=O)CC1)[C@@H](C1CC1)N2S(=O)(=O)c1ccc(F)cc1 [BAY-786] was tested, and the residual activity [1] was 100%, the residual activity [2] was 58% and the residual activity [3] was 93%. The residual activity [4] was 89%, the residual activity [5] was 100% and the residual activity [6] was 86%. The residual activity [7] was 84%, the residual activity [8] was 77% and the residual activity [9] was 97%. It also gave a residual activity [10] of 97%, a residual activity [11] of 99% and a residual activity [12] of 100%. For the same molecule, the residual activity [13] was 100%, the residual activity [14] was 100% and the residual activity [15] was 77%. It also gave a residual activity [16] of 81%, a residual activity [17] of 72% and an inhibition [18] of 37.6%. The residual activity [19] was 70%, the residual activity [20] was 70% and the residual activity [21] was 79%. For the same molecule, the residual activity [22] was 76%, the residual activity [23] was 68% and the residual activity [24] was 77%. The residual activity [25] was 79%, the residual activity [26] was 97% and the residual activity [27] was 100%. The residual activity [28] was 100%, the residual activity [29] was 90% and the inhibition [30] was -0.77%. For the same molecule, the residual activity [31] was 100%, the residual activity [32] was 90% and the residual activity [33] was 100%. It also gave an inhibition [34] of -2.74%, a residual activity [35] of 77% and a residual activity [36] of 88%. The residual activity [37] was 78%, the residual activity [38] was 93% and the residual activity [39] was 100%. For the same molecule, the residual activity [40] was 68%, the residual activity [41] was 82% and the residual activity [42] was 80%. The residual activity [43] was 100%, the residual activity [44] was 68% and the residual activity [45] was 77%.
